Results from US20230278972A1, “SUBSTITUTED HALOALKYL SULFONANILIDE HERBICIDES” (FMC Corporation, priority 2020, published 2023).

Assays:
Type in all cases: in vivo
[1] = tested on: barnyardgrass (Echinochloa crus-galli); assay: Test A postemergence, barnyardgrass; conditions: Postemergence, 0 to 100 scale (0 no effect, 100 complete control)
Procedure, shortened: (§1)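 Pots: loam soil/sand blend. Pre: directed soil spray at planting. Post: plants 2–10 cm, 1–2 leaf stage. Formulation: non-phytotoxic solvent + surfactant.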

[2] = tested on: Foxtail, Giant (giant foxtail, Setaria faberi); assay: Test A preemergence, Foxtail, Giant; conditions: Preemergence; for Plant response rating, Foxtail, Giant: 125 g ai/ha, visual injury, 0 to 100 scale (0 no effect, 100 complete control), approx. 10 days; for Foxtail, Giant plant response rating: 500 g ai/ha, visual injury on 0 to 100 scale (0 no effect, 100 complete control), approximately 10 days
Procedure, shortened: (§2)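 Seeds are sown in loam mixed with sand and sprayed on the soil surface right after planting for the preemergence test. Postemergence pots are sprayed once seedlings reach 2 to 10 cm at the one- to two-leaf stage. The same surfactant-containing, non-phytotoxic solvent formulation serves both.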

[3] = tested on: galium (catchweed bedstraw, Galium aparine); assay: Test A postemergence, galium; conditions: Postemergence, 0 to 100 scale (0 no effect, 100 complete control)
Procedure, shortened: as §1

corn (Zea mays) = assay: Test A postemergence, corn; conditions: Postemergence, 0 to 100 scale (0 no effect, 100 complete control)
Procedure, shortened: as §2

kochia (Bassia scoparia) [4] = assay: Test A preemergence, kochia; conditions: Preemergence; for Plant response rating, Kochia: 125 g ai/ha, visual injury, 0 to 100 scale (0 no effect, 100 complete control), approx. 10 days; for Kochia plant response rating: 500 g ai/ha, visual injury on 0 to 100 scale (0 no effect, 100 complete control), approximately 10 days
Procedure, shortened: as §2

[5] = tested on: ragweed (common ragweed, Ambrosia artemisiifolia); assay: Test A preemergence, ragweed; conditions: Preemergence; for Plant response rating, Ragweed: 125 g ai/ha, visual injury, 0 to 100 scale (0 no effect, 100 complete control), approx. 10 days; for Ragweed plant response rating: 500 g ai/ha, visual injury on 0 to 100 scale (0 no effect, 100 complete control), approximately 10 days
Procedure, shortened: as §2

kochia (Bassia scoparia) [6] = assay: Test A postemergence, kochia; conditions: Postemergence, 0 to 100 scale (0 no effect, 100 complete control)
Procedure, shortened: as §2

[7] = tested on: pigweed (Amaranthus retroflexus); assay: Test A preemergence, pigweed; conditions: for Plant response rating, Pigweed: 125 g ai/ha, visual injury, 0 to 100 scale (0 no effect, 100 complete control), approx. 10 days; for Pigweed plant response rating: 500 g ai/ha, visual injury on 0 to 100 scale (0 no effect, 100 complete control), approximately 10 days
Procedure, shortened: as §1

[8] = tested on: Ryegrass, Italian (Italian ryegrass, Lolium multiflorum); assay: Test A postemergence, Ryegrass, Italian; conditions: Postemergence, 0 to 100 scale (0 no effect, 100 complete control)
Procedure, shortened: as §2

[9] = tested on: Ryegrass, Italian (Italian ryegrass, Lolium multiflorum); assay: Test A preemergence, Ryegrass, Italian; conditions: Preemergence; for Plant response rating, Ryegrass, Italian: 125 g ai/ha, visual injury, 0 to 100 scale (0 no effect, 100 complete control), approx. 10 days; for Ryegrass, Italian plant response rating: 500 g ai/ha, visual injury on 0 to 100 scale (0 no effect, 100 complete control), approximately 10 days
Procedure, shortened: as §2

[10] = tested on: blackgrass (Alopecurus myosuroides); assay: Test A postemergence, blackgrass; conditions: Postemergence, 0 to 100 scale (0 no effect, 100 complete control)
Procedure, shortened: as §2

[11] = tested on: wheat (Triticum aestivum); assay: Test A postemergence, wheat; conditions: Postemergence, 0 to 100 scale (0 no effect, 100 complete control)
Procedure, shortened: as §1

[12] = tested on: Foxtail, Giant (giant foxtail, Setaria faberi); assay: Test A postemergence, Foxtail, Giant; conditions: Postemergence, 0 to 100 scale (0 no effect, 100 complete control)
Procedure, shortened: as §2

[13] = tested on: barnyardgrass (Echinochloa crus-galli); assay: Test A preemergence, barnyardgrass; conditions: Preemergence; for Plant response rating, Barnyardgrass: 125 g ai/ha, visual injury, 0 to 100 scale (0 no effect, 100 complete control), approx. 10 days; for Barnyardgrass plant response rating: 500 g ai/ha, visual injury on 0 to 100 scale (0 no effect, 100 complete control), approximately 10 days
Procedure, shortened: as §2

[14] = tested on: pigweed (Amaranthus retroflexus); assay: Test A postemergence, pigweed; conditions: Postemergence, 0 to 100 scale (0 no effect, 100 complete control)
Procedure, shortened: as §2

[15] = tested on: ragweed (common ragweed, Ambrosia artemisiifolia); assay: Test A postemergence, ragweed; conditions: Postemergence, 0 to 100 scale (0 no effect, 100 complete control)
Procedure, shortened: as §2

[16] = 500 g ai/ha, visual injury approx. 10 days

Q: Which results are given for `Cc1cc(C)c(N(S(=O)(=O)C(F)(F)F)S(=O)(=O)C(F)(F)F)cc1C(=O)N1CCC(Cl)CC1` [Compound 243]?
A: Plant response rating, Barnyardgrass ([1]; 125 g ai/ha): 50; Plant response rating, Barnyardgrass [1, 16]: 70; Plant response rating, Foxtail, Giant [2]: 100; Foxtail, Giant plant response rating [2]: 100; Plant response rating, Galium ([3]; 125 g ai/ha): 70; Plant response rating, Galium [3, 16]: 90; Plant response rating, Corn (corn (Zea mays); 125 g ai/ha): 0; Plant response rating, Corn (corn (Zea mays); [16]): 0; Plant response rating, Kochia (kochia (Bassia scoparia) [4]): 20; Kochia plant response rating (kochia (Bassia scoparia) [4]): 80; Plant response rating, Ragweed [5]: 70; Ragweed plant response rating [5]: 80; Plant response rating, Kochia (kochia (Bassia scoparia) [6]; 125 g ai/ha): 10; Plant response rating, Kochia (kochia (Bassia scoparia) [6]; [16]): 70; Plant response rating, Pigweed [7]: 100; Pigweed plant response rating [7]: 100; Plant response rating, Ryegrass, Italian ([8]; 125 g ai/ha): 0; Plant response rating, Ryegrass, Italian [8, 16]: 30; Plant response rating, Ryegrass, Italian [9]: 90; Ryegrass, Italian plant response rating [9]: 100; Plant response rating, Blackgrass ([10]; 125 g ai/ha): 0; Plant response rating, Blackgrass [10, 16]: 10; Plant response rating, Wheat ([11]; 125 g ai/ha): 0; Plant response rating, Wheat [11, 16]: 30; Plant response rating, Foxtail, Giant ([12]; 125 g ai/ha): 0; Plant response rating, Foxtail, Giant [12, 16]: 40; Plant response rating, Barnyardgrass [13]: 80; Barnyardgrass plant response rating [13]: 90; Plant response rating, Pigweed ([14]; 125 g ai/ha): 90; Plant response rating, Pigweed [14, 16]: 100; Plant response rating, Ragweed ([15]; 125 g ai/ha): 30; Plant response rating, Ragweed [15, 16]: 90

Q: For `COC1CCN(C(=O)c2cc(NS(=O)(=O)C(F)(F)F)c(Cl)cc2C)CC1` [Compound 246], which “Plant response rating, Barnyardgrass” value ([1]; 125 g ai/ha) is on record?
A: Its value is 70.

Q: And the “Plant response rating, Barnyardgrass” value [1, 16]?
A: The value was 90.

Q: And the “Plant response rating, Foxtail, Giant” value [2]?
A: The value was 90.

Q: What about the “Foxtail, Giant plant response rating” value [2] of the same compound?
A: Its value is 100.

Q: And the “Plant response rating, Galium” value ([3]; 125 g ai/ha)?
A: The value was 90.

Q: And the “Plant response rating, Galium” value [3, 16]?
A: Its value is 90.

Q: What about the “Plant response rating, Corn” value (corn (Zea mays); 125 g ai/ha) of the same compound?
A: Its value is 20.

Q: What about the “Plant response rating, Corn” value (corn (Zea mays); [16]) of the same compound?
A: Its value is 40.

Q: And the “Plant response rating, Kochia” value (kochia (Bassia scoparia) [4])?
A: The value was 40.

Q: What about the “Kochia plant response rating” value (kochia (Bassia scoparia) [4]) of the same compound?
A: Its value is 90.

Q: What about the “Plant response rating, Ragweed” value [5] of the same compound?
A: The value was 80.

Q: And the “Ragweed plant response rating” value [5]?
A: The value was 90.

Q: What about the “Plant response rating, Kochia” value (kochia (Bassia scoparia) [6]; 125 g ai/ha) of the same compound?
A: The value was 20.

Q: And the “Plant response rating, Kochia” value (kochia (Bassia scoparia) [6]; [16])?
A: Its value is 80.

Q: And the “Plant response rating, Pigweed” value [7]?
A: The value was 90.

Q: What about the “Pigweed plant response rating” value [7] of the same compound?
A: The value was 100.

Q: What about the “Plant response rating, Ryegrass, Italian” value ([8]; 125 g ai/ha) of the same compound?
A: Its value is 0.

Q: And the “Plant response rating, Ryegrass, Italian” value [8, 16]?
A: Its value is 10.

Q: What about the “Plant response rating, Ryegrass, Italian” value [9] of the same compound?
A: The value was 70.

Q: What about the “Ryegrass, Italian plant response rating” value [9] of the same compound?
A: The value was 100.

Q: What about the “Plant response rating, Blackgrass” value ([10]; 125 g ai/ha) of the same compound?
A: The value was 20.

Q: What about the “Plant response rating, Blackgrass” value [10, 16] of the same compound?
A: The value was 0.

Q: What about the “Plant response rating, Wheat” value ([11]; 125 g ai/ha) of the same compound?
A: Its value is 20.

Q: And the “Plant response rating, Wheat” value [11, 16]?
A: The value was 60.

Q: What about the “Plant response rating, Foxtail, Giant” value ([12]; 125 g ai/ha) of the same compound?
A: Its value is 60.

Q: And the “Plant response rating, Foxtail, Giant” value [12, 16]?
A: The value was 90.

Q: What about the “Plant response rating, Barnyardgrass” value [13] of the same compound?
A: The value was 40.

Q: And the “Barnyardgrass plant response rating” value [13]?
A: The value was 100.

Q: What about the “Plant response rating, Pigweed” value ([14]; 125 g ai/ha) of the same compound?
A: The value was 90.

Q: And the “Plant response rating, Pigweed” value [14, 16]?
A: The value was 90.

Q: What about the “Plant response rating, Ragweed” value ([15]; 125 g ai/ha) of the same compound?
A: Its value is 90.

Q: What about the “Plant response rating, Ragweed” value [15, 16] of the same compound?
A: The value was 90.
